Measured values from patent publication US10301351B2, “Stitched polypeptides” (President and Fellows of Harvard College, priority 2007, dated 2019).
Bridge positions count the residues as written; N and C are the ends. Square brackets hold non-standard residues; d marks the D form. S8 = C=CCCCCCC[C@](C)(N)C(=O)O; R5 = C=CCCC[C@@](C)(N)C(=O)O; S5 = C=CCCC[C@](C)(N)C(=O)O; Aib = CC(C)(N)C(=O)O

Tests used:
[1] = Circular dichroism, temperature-dependent spectra and thermal unfolding curves; assay type: physicochemical
Description: Peptides were dissolved in water to described concentrations, and the concentrations were determined by absorbance spectroscopy (extinction coefficient for tryptophan, ε280=5690 cm^-1). Circular dichroism spectra were collected on a Jasco J-710 spectropolarimeter equipped with a temperature controller using the following standard measurement parameters: 0.5 nm step resolution, 20 nm/sec speed, 10 accumulations, 1 sec response, 1 nm bandwidth, 0.1 cm path length. All spectra were converted to a uniform scale of molar ellipticity after background subtraction. Temperature-dependent CD spectra of each peptide (94-100 μM) were recorded at varying temperatures (4° C. and every 10° C. from 10° C. to 90° C.) from 260 to 185 nm. CD measurements with varying concentrations (18, 48, 70, and 118 μM) of peptide 4 were performed at 20° C. To generate thermal unfolding curves, the ellipticity at 222 nm for each peptide (94-100 μM) was measured every 1° C. from 4 to 95° C. with temperature slope of 3° C./min. To obtain Tm, we analyzed the thermal unfolding curves using a two-state model as previously described with 95% confidence interval (see […]. Biophysic. J. 2003, 85, 1457-1465). […] However, peptide 4 retained more than 50% of their alpha-helicity even at 95° C.

trypsin = biological target: T1, trypsin (Bos taurus, UniProt P00760); assay type: in vitro ADME; details: for slope of ln[S] versus time (first order kinetics of trypsin digestion): 0.1 M NH4HCO3 buffer pH 8.0, room temperature
T1 construct: purchased Pierce 20230
T1 sequence (P00760 24-246): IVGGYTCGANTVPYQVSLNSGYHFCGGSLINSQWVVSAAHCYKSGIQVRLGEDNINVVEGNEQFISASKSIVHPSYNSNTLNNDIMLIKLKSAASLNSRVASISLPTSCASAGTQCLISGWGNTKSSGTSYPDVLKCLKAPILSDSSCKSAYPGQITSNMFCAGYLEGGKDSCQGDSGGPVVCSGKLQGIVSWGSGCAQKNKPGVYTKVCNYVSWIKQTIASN
Description: 0.4 mL of trypsin immobilized on agarose (Pierce, catalog #20230) was washed with 0.8 mL of a digestion buffer (0.1 M NH4HCO3 buffer, pH 8.0). The gel was separated from the buffer after each wash by centrifugation. The washed enzyme was suspended in 1.6 mL of the digestion buffer. 350 μL of a peptide solution (24 μM) in the digestion buffer was mixed with 150 μL of the enzyme suspension and the resulting mixture was incubated with rapid shaking at room temperature for 10, 30, 90, 135, 180 minutes. The incubation was quenched by filtering off the enzyme, and the residual substrate in the filtrate was quantified by HPLC-based peak detection at 280 nm.

chymotrypsin = assay: Stability of peptides against chymotrypsin; assay type: in vitro ADME; details: compared with stapled peptide 5
[2] = Stability of peptides against guanidine hydrochloride (helicity); assay type: physicochemical

Molecule | helical character by CD (in words) [1] | cooperative melting transition point (in words) ([1]; 4 to 95° C.) | alpha-helicity retained ([1]; at 95° C.) | thermal stability of the helix by CD (in words) ([1]; increasing temperature) | slope of ln[S] versus time (first order kinetics of trypsin digestion) (trypsin) | half-life (trypsin; pH 8) [h] | stability against chymotrypsin (in words) (chymotrypsin) | stability against the denaturing agent guanidine hydrochloride (in words) [2] | cooperative melting transition (Tm) ([1]; CD ellipticity at 222 nm, 4 to 95° C., peptide 94-100 μM in water, two-state model) [°C]
CC(=O)N[C@@H](CCC(=O)O)C(=O)N[C@@H](Cc1c[nH]c2ccccc12)C(=O)N[C@@H](C)C(=O)N[C@@]1(C)CCC/C=C\CCC[C@]2(CCC/C=C/CCCCCC[C@@](C)(C(N)=O)NC(=O)[C@H](Cc3c[nH]cn3)NC(=O)[C@H](C)NC(=O)[C@H](C)NC(=O)[C@H](CC(C)C)NC(=O)[C@H](Cc3ccccc3)NC(=O)[C@H](CCCCN)NC2=O)NC(=O)[C@H](C)NC(=O)[C@H](C)NC(=O)[C@H]([C@@H](C)O)NC1=O [Peptide 4] | displayed the characteristic CD signature of alpha-helices | did not have a cooperative melting transition point | more than 50% | less affected by increasing temperature than single-stapled peptides 5 and 6 | 4.04±0.16×10^−5 min^−1 | 2.87 | higher level of stability | remains fully helical even at extremely high concentrations of guanidine salt | –
Peptide 8: i+4+4 stitched peptide, double RCM product of Table 5 entry XI (SEQ ID 11) (Ac-EWA[S5]TAA[2‑amino‑2‑(pent-4-enyl)hept‑6‑enoic acid]KFL[R5]AHA-NH2; staple 8-12, 4-8) | helical character greater than the stapled peptide 5 and less than that of the i+4+7 stitched peptide 4 | did not have a cooperative melting transition point | – | – | – | – | – | – | –
Peptide 5: single-stapled peptide, RCM product of Table 5 entry IX (SEQ ID 9) (Ac-EWA[Aib]TAA[R5]KFLAAH[S8]-NH2; staple 8-15 (inferred)) | – | – | – | – | 7.11±0.66×10^−5 min^−1 | – | – | – | 57
